{"source": "patent US10869940B2", "about": "“Targeted photoacoustic compounds, formulations, and uses thereof” (The Board of Trustees of the Leland Stanford Junior …, priority 2015, dated 2020)", "biological_target": "T1, PSMA expressing PC3 PiP cells (Homo sapiens, UniProt Q04609)", "T1 construct": "expressed in transfected cells; host or cells: PC3 PIP cells", "T1 sequence (Q04609 whole entry)": "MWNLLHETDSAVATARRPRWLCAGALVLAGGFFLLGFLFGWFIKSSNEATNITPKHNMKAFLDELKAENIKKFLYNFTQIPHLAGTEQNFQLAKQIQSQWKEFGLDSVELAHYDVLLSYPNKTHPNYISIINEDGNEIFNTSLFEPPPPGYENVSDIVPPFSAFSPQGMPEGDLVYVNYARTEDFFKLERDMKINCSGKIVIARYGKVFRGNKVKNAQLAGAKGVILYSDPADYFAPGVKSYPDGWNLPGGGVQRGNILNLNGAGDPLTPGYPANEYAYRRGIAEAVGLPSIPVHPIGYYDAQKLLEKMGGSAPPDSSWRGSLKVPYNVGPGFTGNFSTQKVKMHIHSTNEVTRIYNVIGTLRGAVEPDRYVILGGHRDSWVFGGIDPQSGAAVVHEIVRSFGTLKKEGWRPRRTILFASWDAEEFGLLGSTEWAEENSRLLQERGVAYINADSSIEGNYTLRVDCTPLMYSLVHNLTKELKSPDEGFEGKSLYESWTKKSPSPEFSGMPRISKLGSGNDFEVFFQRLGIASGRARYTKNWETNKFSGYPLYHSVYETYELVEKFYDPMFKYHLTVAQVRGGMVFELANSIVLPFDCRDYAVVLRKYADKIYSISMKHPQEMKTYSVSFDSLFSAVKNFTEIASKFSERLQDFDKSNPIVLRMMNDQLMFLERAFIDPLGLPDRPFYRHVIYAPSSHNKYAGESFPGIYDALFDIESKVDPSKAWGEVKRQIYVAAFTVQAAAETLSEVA", "assay": "Binding of the PSMA targeting photoacoustic compound to PSMA-expressing PC3 PIP cells", "data": [{"smiles": "O=C(O)CCC(CP(=O)(O)O)C(=O)O", "note": "(stereo not shown) [2-PMPA, 2-(phosphonomethyl)pentane-1,5 dioic acid]", "values": [{"measurement": "blocking of binding to PC3 PIP cells by co-incubation with 2-PMPA", "value": "efficiently blocked"}]}]}
